Assay results from PubChem BioAssay (NCI).
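Five concentrations, 48 hours, 96-well plates. GI50 marks 50% less growth. The concentration for full growth arrest is given as TGI.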

What was measured:
Assay in all cases: inhibition of tumour cell growth, NCI panel, 48 h
786-0 renal = system: 786-0 renal
A498 renal = system: A498 renal
A549 NSCLC = system: A549 NSCLC
ACHN renal = system: ACHN renal
BT-549 breast = system: BT-549 breast
CAKI-1 renal = system: CAKI-1 renal
CCRF-CEM leukemia = system: CCRF-CEM leukemia
COLO 205 colon = system: COLO 205 colon
DU-145 prostate = system: DU-145 prostate
EKVX NSCLC = system: EKVX NSCLC
HCC-2998 colon = system: HCC-2998 colon
HCT-116 colon = system: HCT-116 colon
HCT-15 colon = system: HCT-15 colon
HL-60(TB) leukemia = system: HL-60(TB) leukemia
HOP-62 NSCLC = system: HOP-62 NSCLC
HOP-92 NSCLC = system: HOP-92 NSCLC
HS 578T breast = system: HS 578T breast
HT29 colon = system: HT29 colon
IGROV1 ovarian = system: IGROV1 ovarian
K-562 leukemia = system: K-562 leukemia
KM12 colon = system: KM12 colon
LOX IMVI melanoma = system: LOX IMVI melanoma
M14 melanoma = system: M14 melanoma
MALME-3M melanoma = system: MALME-3M melanoma
MCF7 breast = system: MCF7 breast
MDA-MB-231 breast = system: MDA-MB-231 breast
MDA-MB-435 = system: MDA-MB-435
MDA-MB-468 breast = system: MDA-MB-468 breast
MOLT-4 leukemia = system: MOLT-4 leukemia
NCI-H226 lung = system: NCI-H226 lung
NCI-H23 lung = system: NCI-H23 lung
NCI-H460 lung = system: NCI-H460 lung
NCI-H522 lung = system: NCI-H522 lung
OVCAR-3 ovarian = system: OVCAR-3 ovarian
OVCAR-4 ovarian = system: OVCAR-4 ovarian
OVCAR-5 ovarian = system: OVCAR-5 ovarian
OVCAR-8 ovarian = system: OVCAR-8 ovarian
PC-3 prostate = system: PC-3 prostate
RPMI-8226 leukemia = system: RPMI-8226 leukemia
RXF 393 renal = system: RXF 393 renal
SF-268 CNS = system: SF-268 CNS
SF-295 CNS = system: SF-295 CNS
SF-539 CNS = system: SF-539 CNS
SK-MEL-2 melanoma = system: SK-MEL-2 melanoma
SK-MEL-28 melanoma = system: SK-MEL-28 melanoma
SK-MEL-5 melanoma = system: SK-MEL-5 melanoma
SK-OV-3 ovarian = system: SK-OV-3 ovarian
SN12C renal = system: SN12C renal
SNB-19 CNS = system: SNB-19 CNS
SNB-75 CNS = system: SNB-75 CNS
SR leukemia = system: SR leukemia
SW-620 colon = system: SW-620 colon
T-47D breast = system: T-47D breast
TK-10 renal = system: TK-10 renal
U251 CNS = system: U251 CNS
UACC-257 melanoma = system: UACC-257 melanoma
UACC-62 melanoma = system: UACC-62 melanoma
UO-31 renal = system: UO-31 renal

Compound: CN1CCN(Cc2ccc(C(=O)Nc3cccc(Nc4ccc5cc(O)ccc5n4)c3)cc2C(F)(F)F)CC1
- GI50 (786-0 renal): 3.13 µM
- TGI (786-0 renal): 10.9 µM
- GI50 (A498 renal): 22.5 µM
- TGI (A498 renal): 37.1 µM
- GI50 (A549 NSCLC): 8.7 µM
- TGI (A549 NSCLC): 22.3 µM
- GI50 (ACHN renal): 7.59 µM
- TGI (ACHN renal): 23.1 µM
- GI50 (BT-549 breast): 12.2 µM
- TGI (BT-549 breast): 25.4 µM
- GI50 (CAKI-1 renal): 11.9 µM
- TGI (CAKI-1 renal): 24.3 µM
- GI50 (CCRF-CEM leukemia): 3.48 µM
- TGI (CCRF-CEM leukemia): 17.2 µM
- GI50 (COLO 205 colon): 10.2 µM
- TGI (COLO 205 colon): 23.8 µM
- GI50 (DU-145 prostate): 10.5 µM
- TGI (DU-145 prostate): 22.3 µM
- GI50 (EKVX NSCLC): 14.2 µM
- TGI (EKVX NSCLC): 28.3 µM
- GI50 (HCC-2998 colon): 2.39 µM
- TGI (HCC-2998 colon): 5.22 µM
- GI50 (HCT-116 colon): 3.93 µM
- TGI (HCT-116 colon): 15 µM
- GI50 (HCT-15 colon): 2.09 µM
- TGI (HCT-15 colon): 4.49 µM
- GI50 (HL-60(TB) leukemia): 2.58 µM
- TGI (HL-60(TB) leukemia): 4.86 µM
- GI50 (HOP-62 NSCLC): 12.1 µM
- TGI (HOP-62 NSCLC): 24.9 µM
- GI50 (HOP-92 NSCLC): 3.39 µM
- TGI (HOP-92 NSCLC): 17 µM
- GI50 (HS 578T breast): 4.17 µM
- TGI (HS 578T breast): 35.3 µM
- GI50 (HT29 colon): 3.37 µM
- TGI (HT29 colon): 12 µM
- GI50 (IGROV1 ovarian): 16.6 µM
- TGI (IGROV1 ovarian): 31.3 µM
- GI50 (K-562 leukemia): 1.88 µM
- TGI (K-562 leukemia): 4.51 µM
- GI50 (KM12 colon): 3.17 µM
- TGI (KM12 colon): 10.9 µM
- GI50 (LOX IMVI melanoma): 1.73 µM
- TGI (LOX IMVI melanoma): 3.19 µM
- GI50 (M14 melanoma): 9.06 µM
- TGI (M14 melanoma): 23.5 µM
- GI50 (MALME-3M melanoma): 1.59 µM
- TGI (MALME-3M melanoma): 3.15 µM
- GI50 (MCF7 breast): 2.46 µM
- TGI (MCF7 breast): 7.31 µM
- GI50 (MDA-MB-231 breast): 2.54 µM
- TGI (MDA-MB-231 breast): 7.9 µM
- GI50 (MDA-MB-435): 8.53 µM
- TGI (MDA-MB-435): 20.8 µM
- GI50 (MDA-MB-468 breast): 2.23 µM
- TGI (MDA-MB-468 breast): 6.47 µM
- GI50 (MOLT-4 leukemia): 3.52 µM
- TGI (MOLT-4 leukemia): 9.49 µM
- GI50 (NCI-H226 lung): 16 µM
- TGI (NCI-H226 lung): 33.3 µM
- GI50 (NCI-H23 lung): 13.9 µM
- TGI (NCI-H23 lung): 28.5 µM
- GI50 (NCI-H460 lung): 3.84 µM
- TGI (NCI-H460 lung): 15.2 µM
- GI50 (NCI-H522 lung): 4.82 µM
- TGI (NCI-H522 lung): 17.5 µM
- GI50 (OVCAR-3 ovarian): 11.2 µM
- TGI (OVCAR-3 ovarian): 23.4 µM
- GI50 (OVCAR-4 ovarian): 11.2 µM
- TGI (OVCAR-4 ovarian): 23.8 µM
- GI50 (OVCAR-5 ovarian): 14.2 µM
- TGI (OVCAR-5 ovarian): 27.7 µM
- GI50 (OVCAR-8 ovarian): 13.2 µM
- TGI (OVCAR-8 ovarian): 28.4 µM
- GI50 (PC-3 prostate): 4.68 µM
- TGI (PC-3 prostate): 20.1 µM
- GI50 (RPMI-8226 leukemia): 2.65 µM
- TGI (RPMI-8226 leukemia): 7.1 µM
- GI50 (RXF 393 renal): 3.55 µM
- TGI (RXF 393 renal): 15.7 µM
- GI50 (SF-268 CNS): 10.4 µM
- TGI (SF-268 CNS): 23.8 µM
- GI50 (SF-295 CNS): 2.33 µM
- TGI (SF-295 CNS): 5.64 µM
- GI50 (SF-539 CNS): 1.98 µM
- TGI (SF-539 CNS): 12.2 µM
- GI50 (SK-MEL-2 melanoma): 13.5 µM
- TGI (SK-MEL-2 melanoma): 26.4 µM
- GI50 (SK-MEL-28 melanoma): 1.79 µM
- TGI (SK-MEL-28 melanoma): 3.32 µM
- GI50 (SK-MEL-5 melanoma): 2.35 µM
- TGI (SK-MEL-5 melanoma): 6.4 µM
- GI50 (SK-OV-3 ovarian): 16.5 µM
- TGI (SK-OV-3 ovarian): 30.5 µM
- GI50 (SN12C renal): 14.1 µM
- TGI (SN12C renal): 27.6 µM
- GI50 (SNB-19 CNS): 13.7 µM
- TGI (SNB-19 CNS): 27.5 µM
- GI50 (SNB-75 CNS): 0.656 µM
- TGI (SNB-75 CNS): 15.3 µM
- GI50 (SR leukemia): 2.68 µM
- TGI (SR leukemia): 8.5 µM
- GI50 (SW-620 colon): 2.3 µM
- TGI (SW-620 colon): 4.57 µM
- GI50 (T-47D breast): 14.6 µM
- TGI (T-47D breast): 32.2 µM
- GI50 (TK-10 renal): 21.4 µM
- TGI (TK-10 renal): 35.8 µM
- GI50 (U251 CNS): 2.17 µM
- TGI (U251 CNS): 6.49 µM
- GI50 (UACC-257 melanoma): 7.35 µM
- TGI (UACC-257 melanoma): 20.6 µM
- GI50 (UACC-62 melanoma): 15.4 µM
- TGI (UACC-62 melanoma): 29.2 µM
- GI50 (UO-31 renal): 13.4 µM
- TGI (UO-31 renal): 27.3 µM
